Measured values taken from US20250179017A1 (GUANGDONG NEWOPP BIOPHARMACEUTICALS CO., LTD., priority 2022, published 2025).

Molecular target: T1, human EP2 (PTGER2) (Homo sapiens, UniProt P43116)
T1 construct: Cayman Chemical (Human EP2 Reporter Assay Kit)
Experiment: EP2 antagonist assay (HEK-293 CNG membrane potential cAMP assay / 293T SEAP reporter assay, PGE2-stimulated)
Assay type: cell-based
Settings: EP2 antagonist activity; concentration for 50% inhibition of signal compared to DMSO
Description: 1. The HEK-293 CNG (Cyclic Nucleotide Gated) cell line expressing a modified CNG channel that leads to cell membrane depolarization in response to elevated intracellular cAMP levels, which can be measured using a fluorescent membrane potential dye, was engineered to express human EP2 (PTGER2) or EP4 (EP4R). The resulting cell line ACTOne™ PTGER2 or ACTOne™ EP4R as well as the fluorescent membrane potential dye were purchased from eEnzyme (Gaithersburg, MD, US) and used in this assay. Briefly, cells were plated at 1.2×10^4 cells/well in 20 μL DMEM supplemented with 2% Fetal Bovine Serum (FBS, VWR International), 1x Penicillin/Streptomycin (GenClone), 0.2 μg/mL puromycin (InvivoGen) and 50 μg/mL G418 (InvivoGen) on a 384 well plate (Greiner). The next day, cells were dye-loaded with 20 μL/well of 1x Dye-loading solution (eENZYME) following the manufacturer's instruction. After 2 hours of incubation at room temperature (RT) in the dark, a pre-read was made to obtain the background signals using CLARIOstar plate reader (BMG LABTECH, Germany) with the following filter settings: excitation=530/20 nm, emission=590/20 nm. Next, a serial dilution of compound (plus a DMSO control) were added to the plate (5 μL/well) and the reaction was incubated at RT for 15 min before adding 5 μL of PGE2 to every well for a final concentration of 5 nM. All wells were duplicated. The plate was then further incubated at RT for 30 min prior to a final read with the same machine settings. Background-subtracted signals were used to calculate IC50 values.
2. Human EP2 and EP4 Reporter Assay Kits were purchased from Cayman Chemical (Ann Arbor, MI, USA). The assay was performed following the provided User Manual. Briefly, a reverse transfection was performed by seeding 6.0×10^4 of 293T cells (ATCC) to each well of the provided Strip Plate coated with a proprietary transfection complex containing DNA constructs for expressing human EP2 or EP4 and a cAMP response element regulated secreted alkaline phosphatase (SEAP) reporter, in 200 μL DMEM supplemented with 2% FBS and incubated for 20-24 hours at 37° C. with 5% CO2. After the incubation, the culture medium was carefully removed, and the cells were replenished with 150 μL pre-warmed serum-free medium. PGE2 and test compounds were prepared together at 4x the desired final concentration, and 50 μL was added to each assigned well with the final concentration of 13 nM and 2 nM PGE2 for EP2 and EP4 assay, respectively. After 6-8 hours of incubation, 10 μL media from each well was transferred to corresponding well of a new plate, which was then sealed and incubated at 65° C. for 30 min. The plate was then cooled down to RT and 50 μL SEAP substrate was added to each well. Luminescence signal was measured using a CLARIOstar plate reader.
The IC50 value was determined as the concentration for 50% inhibition of signal compared to DMSO (A: IC50 […]; B: IC50 between 100 nM and 1,000 nM; C: IC50≥1,000 nM).

T1 sequence (P43116 whole entry): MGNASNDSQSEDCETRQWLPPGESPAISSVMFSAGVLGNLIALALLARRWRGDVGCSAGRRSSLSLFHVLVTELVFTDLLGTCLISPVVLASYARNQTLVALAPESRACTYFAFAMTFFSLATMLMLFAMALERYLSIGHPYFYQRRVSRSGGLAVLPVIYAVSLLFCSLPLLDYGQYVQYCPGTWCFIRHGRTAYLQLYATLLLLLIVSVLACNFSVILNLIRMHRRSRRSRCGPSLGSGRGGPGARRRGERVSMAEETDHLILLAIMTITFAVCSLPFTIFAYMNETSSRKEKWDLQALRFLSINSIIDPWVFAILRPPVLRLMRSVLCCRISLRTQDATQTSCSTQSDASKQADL

| IC50 | Compound |
| --- | --- |
| < 100 nM | C[C@H](NC(=O)c1cc(-c2cc(F)cc(F)c2)cc2ccn(Cc3cccc(C(F)(F)F)c3)c12)c1ccc(C(=O)O)cc1 [Example 130, (S)-4-(1-(5-(3,5-difluorophenyl)-1-(3-(trifluoromethyl)benzyl)-1H-indole-7-carboxamido)ethyl)benzoic acid] |
| ≥ 1000 nM | C[C@@H](NC(=O)c1ccc(-c2cccc(C#N)c2)c2ccn(Cc3ccc(C(F)(F)F)cc3)c12)c1ccc(C(=O)O)cc1 [Example 30, (R)-4-(1-(4-(3-cyanophenyl)-1-(4-(trifluoromethyl)benzyl)-1H-indole-7-carboxamido)ethyl) benzoic acid] |
| 100 to 1000 nM | O=C(O)c1ccc(CNC(=O)c2ccc(Nc3ccc(Cl)c(F)c3)c3ccn(Cc4ccc(C(F)(F)F)cc4)c23)cc1 [Example 71, ((4-((4-chloro-3-fluorophenyl)amino)-1-(4-(trifluoromethyl)benzyl)-1H-indole-7-carboxamido)methyl)benzoic acid acid] |
| 100 to 1000 nM | C[C@H](NC(=O)c1cc(-c2ccccc2)cc2cnn([C@@H](C)c3ccc4ccccc4c3)c12)c1ccc(C(=O)O)cc1 [Example 197, 4-((S)-1-(1-((S)-1-(naphthalen-2-yl)ethyl)-5-phenyl-1H-indazole-7-carboxamido)ethyl)benzoic acid] |
| < 100 nM | O=C(O)c1ccc(C2(NC(=O)c3cc(Nc4ccccc4)cc4ccn(Cc5ccc(C(F)(F)F)cc5)c34)CC2)cc1 [Example 43, 4-(1-(5-(phenylamino)-1-(4-(trifluoromethyl)benzyl)-1H-indole-7-carboxamido)cyclopropyl)benzoic acid] |
| ≥ 1000 nM | C[C@@H](NC(=O)c1ccc(-c2ccc(F)c(F)c2)c2ccn(Cc3ccc(C(F)(F)F)cc3)c12)c1ccc(C(=O)O)cc1 [Example 31, (R)-4-(1-(4-(3,4-difluorophenyl)-1-(4-(trifluoromethyl)benzyl)-1H-indole-7-carboxamido)ethyl)benzoic acid] |
| ≥ 1000 nM | C[C@@H](NC(=O)c1cc(-c2cc(F)cc(F)c2)cc2ccn(Cc3ccc(C(F)(F)F)cc3)c12)c1ccc(C(=O)O)cc1 [Example 14, (R)-4-(1-(5-(3,5-difluorophenyl)-1-(4-(trifluoromethyl)benzyl)-1H-indole-7-carboxamido)ethyl) benzoic acid] |
| ≥ 1000 nM | C[C@@H](NC(=O)c1ccc(-c2cccc(C(F)(F)F)c2)c2ccn(Cc3ccc(C(F)(F)F)cc3)c12)c1ccc(C(=O)O)cc1 [Example 33, (R)-4-(1-(1-(4-(trifluoromethyl)benzyl)-4-(3-(trifluoromethyl)phenyl)-1H-indole-7-carboxamido)ethyl) benzoic acid] |
| < 100 nM | N#Cc1cccc(-c2cc(C(=O)NC3(c4ccc(C(=O)O)cc4)CC3)c3c(ccn3Cc3cccc(Cl)c3)c2)c1 [Example 206, 4-(1-(1-(3-chlorobenzyl)-5-(3-cyanophenyl)-1H-indole-7-carboxamido)cyclopropyl)benzoic acid] |
| 100 to 1000 nM | Cn1cc(Sc2ccc(C(F)(F)F)cc2)c2c(C(=O)NCc3ccc(C(=O)O)cc3)cc(-c3cccc(C#N)c3)cc21 [Example 120, 4-((6-(3-cyanophenyl)-1-methyl-3-((4-(trifluoromethyl)phenyl)thio)-1H-indole-4-carboxamido)methyl)benzoic acid] |
| < 100 nM | N#Cc1cccc(-c2cc(C(=O)NCc3ccc(C(=O)O)cc3)c3c(cnn3Cc3ccc(C(F)(F)F)cc3)c2)c1 [Example 98, 4-((5-(3-cyanophenyl)-1-(4-(trifluoromethyl)benzyl)-1H-indazole-7-carboxamido)methyl)benzoic acid] |
| ≥ 1000 nM | O=C(O)c1ccc(C2(NC(=O)c3ccc(-c4ccccc4)c4ccn(Cc5ccc(C(F)(F)F)cc5)c34)CC2)cc1 [Example 36, 4-(1-(4-phenyl-1-(4-(trifluoromethyl)benzyl)-1H-indole-7-carboxamido)cyclopropyl)benzoic acid] |
| < 100 nM | C[C@H](NC(=O)c1cc(-c2ccccc2)cc2cnn(Cc3cccc(Cl)c3)c12)c1ccc(C(=O)O)cc1 [Example 170, (S)-4-(1-(1-(3-chlorobenzyl)-5-phenyl-1H-indazole-7-carboxamido)ethyl)benzoic acid] |
| ≥ 1000 nM | N#Cc1ccc(Nc2ccc(C(=O)NC3(c4ccc(C(=O)O)cc4)CC3)c3c2ccn3Cc2ccc(C(F)(F)F)cc2)cc1 [Example 62, 4-(1-(4-((4-cyanophenyl)amino)-1-(4-(trifluoromethyl)benzyl)-1H-indole-7-carboxamido)cyclopropyl)benzoic acid] |
| < 100 nM | O=C(O)c1ccc(CNC(=O)c2cc(-c3cc(F)cc(F)c3)cc3cnn(Cc4ccc(-c5ccc(F)cc5)cc4)c23)cc1 [Example 186, 4-((5-(3,5-difluorophenyl)-1-((4′-fluoro-[1,1′-biphenyl]-4-yl)methyl)-1H-indazole-7-carboxamido)methyl)benzoic acid] |
| 100 to 1000 nM | O=C(O)c1ccc(C2(NC(=O)c3cc(-c4ccc(F)cc4)cc4ccn(Cc5ccc(C(F)(F)F)cc5)c34)CC2)cc1 [Example 5, 4-(1-(5-(4-fluorophenyl)-1-(4-(trifluoromethyl)benzyl)-1H-indole-7-carboxamido)cyclopropyl)-benzoic acid] |
| < 100 nM | O=C(O)c1ccc(CNC(=O)c2cc(-c3ccccc3)cc3ccn(Cc4cccc5ccccc45)c23)cc1 [Example 177, 44-((1-(naphthalen-1-ylmethyl)-5-phenyl-1H-indole-7-carboxamido)methyl)benzoic acid] |
| 100 to 1000 nM | N#Cc1cccc(-c2cc(C(=O)NC34CC(CC(=O)O)(C3)C4)c3c(Sc4ccc(C(F)(F)F)cc4)c[nH]c3c2)c1 [Example 118, 2-(3-(6-(3-cyanophenyl)-3-((4-(trifluoromethyl)phenyl)thio)-1H-indole-4-carboxamido)bicyclo[1.1.1]pentan-1-yl)acetic acid] |
| < 100 nM | Cc1ccccc1-c1cc(C(=O)NCc2ccc(C(=O)O)cc2)c2c(ccn2Cc2ccc(C(F)(F)F)cc2)c1 [Example 92, 4-((5-(o-tolyl)-1-(4-(trifluoromethyl)benzyl)-1H-indole-7-carboxamido)methyl)benzoic acid] |
| < 100 nM | C[C@H](NC(=O)c1cc(-c2ccc(F)c(F)c2)cc2cnn(Cc3ccc(-c4ccccc4)cc3)c12)c1ccc(C(=O)O)cc1 [Example 201, (S)-4-(1-(1-([1,1′-biphenyl]-4-ylmethyl)-5-(3,4-difluorophenyl)-1H-indazole-7-carboxamido)ethyl)benzoic acid] |
| < 100 nM | N#Cc1cccc(-c2cc(C(=O)NC3CC4(C3)CC(C(=O)O)C4)c3c(Sc4ccc(C(F)(F)F)cc4)c[nH]c3c2)c1 (racemic) [Example 114, (±) 6-(6-(3-cyanophenyl)-3-((4-(trifluoromethyl)phenyl)thio)-1H-indole-4-carboxamido)spiro[3.3]heptane-2-carboxylic acid] |
| < 100 nM | O=C(O)c1ccc(CNC(=O)c2cc(-c3cc(F)cc(F)c3)cc3cnn(Cc4ccc5ccccc5c4)c23)cc1 [Example 157, 4-((5-(3,5-difluorophenyl)-1-(naphthalen-2-ylmethyl)-1H-indazole-7-carboxamido)methyl)benzoic acid] |
| ≥ 1000 nM | C[C@@H](NC(=O)c1cc(-c2cccc(C(F)(F)F)c2)cc2ccn(Cc3ccc(C(F)(F)F)cc3)c12)c1ccc(C(=O)O)cc1 [Example 15, (R)-4-(1-(1-(4-(trifluoromethyl)benzyl)-5-(3-(trifluoromethyl)phenyl)-1H-indole-7-carboxamido)ethyl) benzoic acid] |
| < 100 nM | CC(c1ccc(C(F)(F)F)cc1)n1ccc2cc(-c3ccccc3)cc(C(=O)NCc3ccc(C(=O)O)cc3)c21 (racemic) [Example 178, (±) 4-((5-phenyl-1-(1-(4-(trifluoromethyl)phenyl)ethyl)-1H-indole-7-carboxamido)methyl)benzoic acid] |

| Compound | IC50 |
| --- | --- |
| ((5-(3-cyano-5-fluorophenyl)-1-(4-(trifluoromethyl)benzyl)-1H-indole-7-carboxamido)methyl)benzoic acid [Example 77] | < 100 nM |
